Measurements: article PMC8648872, “A host-directed macrocyclic peptide therapeutic for MDR gram negative bacterial infections” (Scientific Reports, 2021)
“Also recorded” adds a separate entry of the source. Where a SMILES comes first, the peptide text is derived from it. Bridges are numbered along the chain shown (N, C = ends).

Tests used:
[1] = test system: RAW 264.7 macrophages; experiment: Phagocytosis assay, RAW 264.7 macrophages with live Kp-1705; format: cell-based, mouse; details: RAW 264.7 cells, live Kp-1705, MOI 50:1, 0–10 µg/ml peptide, 30 min, 37 °C
Method: Mouse RAW 264.7 macrophages (RAW cells; ATCC, TIB-71) were grown in Dulbecco’s Modified Eagle Medium (DMEM) with 10% heat-inactivated fetal bovine serum (HI-FBS) with 100 U/ml penicillin/streptomycin, and suspended to 2–3 × 10^6 cells/ml in fresh media before use.
Kp-1705 was grown overnight, harvested by centrifugation, washed twice, resuspended in Hank’s Balanced Salt Solution (HBSS), and adjusted to a density of 2.5 × 10^8 CFU/ml. Bacteria were pre-incubated with varied concentrations of MTD12813 at room temperature for 30 min, and incubated (MOI 50:1) with RAW cells (2.5 × 10^6 cell/ml) with orbital shaking at 37 °C for 30 min. Cytospin preparations of 100 µl (2.5 × 10^5 RAW cells/slide) samples were then prepared, fixed with methanol, and stained with hematoxylin and eosin (H & E). Slides were viewed at 100× and 50 RAW cells selected from random fields were manually counted for number of cell associated bacteria. All samples were run in duplicate and experiments performed twice.

[2] = test system: plasma cytokines; experiment: Plasma multiplex cytokine analysis in Kp-1705 sepsis; format: in vivo, BALB/c mice; details: 1.25 mg/kg i.p. 1 h p.i.
Method: EDTA-anticoagulated blood was collected aseptically by terminal cardiac puncture and analyzed for complete blood cell count using an Element HT5 hematology analyzer (Heska). Blood plasma and clarified peritoneal lavage were prepared by two-step centrifugation described previously. Plasma cytokine levels were quantified using a mouse-specific MILLIPLEX MAP kit (Millipore Cat# MCYTMAG-70K) as described.
Supplemental Table 1. Mice were challenged i.p. with Kp-1705 and treated 1 h later with MTD12813 (1.25 mg/kg i.p.) or saline. The sham cohort received bacteria-free suspension buffer at t=0 followed by saline 1 h later. Mice were euthanized 2, 4, or 24 h p.i., and plasma samples were subjected to multiplex cytokine analysis. P values calculated using ANOVA with Uncorrected Fisher’s LSD comparing saline and MTD12813 treated mice at respective time points.

[3] = test system: Kp-1705; experiment: Antibacterial activity of peptide-containing peritoneal fluid; format: cell-based, K. pneumoniae; details: Kp-1705 incubated in PF containing 7.5 µg/ml peptide, 1 h, 37 °C, CFU plating
Method: Cryopreserved Kp-1705 was suspended in PBS to a density of ca. 1 × 10^9 CFU/ml, and incubated with saline or 1.25 µg/ml MTD12813 at room temperature for 1 h. Mice (n = 26) were then infected i.p. with 500 µl of saline- or MTD12813- pretreated Kp-1705, and a third cohort (n = 12) received 500 µl i.p. of 1.25 µg/ml MTD12813 immediately following infection with saline treated Kp-1705. Five mice from each cohort were euthanized 4 h p.i., and peritoneal lavage was collected for bacterial burden determination and cytospin preparation. In vitro antibacterial activity of MTD12813 (1.25 μg/ml) -treated cells (1 h; 37 °C) was determined by plating saline or peptide treated cells on TSA plates. Growth kinetics of saline and MTD12813-treated cells was determined by diluting samples from the 1 h incubation mixtures 1:40 into TSB and monitoring growth (620 nm) for 5.5 h at 37 °C. Antibacterial activity of MTD12813 in PF was determined by i.p. injection of naïve male BALB/c mice (n = 5 per group) with 1.25 mg/kg of MTD12813 or saline i.p. (10 ml/kg). […] Peritoneal fluid was clarified by centrifugation at 1200×g and an aliquot used to quantify MTD12813 by LC–MS/MS, as described above. Antimicrobial activity was determined by incubating PF (9:1 vol/vol) with Kp-1705 at a final density of 3 × 10^7 CFU/ml. […]

[4] = Peptide stability in human EDTA plasma; format: in vitro ADME; details: 90% (vol/vol) human EDTA-plasma, 37 °C, C18 RP-UPLC with PDA detector, read-out: peptide remaining intact
Method: MTD12813 (final concentration of 100 µg/ml) was added to either 90% human EDTA plasma or 90% human serum and incubated at 37 °C for 48 h. Samples were processed by addition of 10% HOAc and 5% ACN (final concentrations) at time 0 and 48 h, and MTD12813 was quantified by C18 RP-HLPC on an Acquity H-Class UPLC with an analytical PDA detector using Empower 3 software (Waters). All samples were performed with technical replicates and analyzed by UPLC in duplicate and the experiment repeated once. […] A time 0 h sample was collected, and the remaining suspension incubated at 37 °C for 24 h. Samples were processed by addition of 5% formic acid/5% acetonitrile, vortexed, and clarified at 22,000×g for 10 min. Supernatant MTD12813 was then quantified by LC–MS/MS as described in PK section above. All samples were performed with technical replicates and analyzed by LC–MS/MS in duplicate.

CC[C@H](C)[C@@H]1NC(=O)[C@@H]2CSSC[C@H](NC(=O)[C@H]([C@@H](C)CC)NC(=O)[C@@H]3CSSC[C@H](NC1=O)C(=O)N[C@@H](C(C)C)C(=O)NCC(=O)N[C@@H](CCCNC(=N)N)C(=O)NCC(=O)N3)C(=O)N[C@@H](C(C)C)C(=O)N[C@@H](CCCNC(=N)N)C(=O)N[C@@H](CCCNC(=N)N)C(=O)N[C@@H](CCCNC(=N)N)C(=O)N2 [MTD12813] (cyclo(CICVGRGCICVRRR); disulfide 1-10, 3-8)
concentration of maximal phagocytic activity [1]: 0.313 µg/mL | plasma CCL4 and CXCL2 ([2]; 2 h p.i.): statistically significant reductions | plasma IL-9 and IL-15 levels ([2]; 4 h p.i.): significant increases | plasma TNF, IL-6 and CXCL1 (KC) ([2]; 4 h p.i.): significantly reduced | change of plasma TNF versus saline ([2]; 24 h p.i.): -89.8% | bacterial killing in peritoneal fluid containing peptide [3]: no bacterial killing was observed; also recorded: no bactericidal activity | remaining at 48 h, 100 µg/ml [4]: > 95%
